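Compound exposure: 48 hours, 5 concentrations, 96-well plates. GI50 = concentration required for 50% inhibition of growth. TGI denotes the concentration required for complete inhibition of growth.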 *1 amine or outer side, *2 acyl side, *3 side chain or, on linkers, in order; H or OH if unused. Where a SMILES comes first, the peptide text is derived from it. [ ]: non-standard residue; d: D form. ξ: configuration not given here. X21 = CC[C@@H](C)C(N[*:1])C(=O)[*:2]; ξR = N=C(N)NCCCC(N)C(=O)O; ξI = CCC(C)C(N)C(=O)O; ξL = CC(C)CC(N)C(=O)O; ξK = NCCCCC(N)C(=O)O; ξV = CC(C)C(N)C(=O)O; ξA = CC(N)C(=O)O
What was measured:
Test in all cases: NCI tumour cell line growth inhibition, 48 h
786-0 renal = tested on: 786-0 renal
A498 renal = tested on: A498 renal
A549 NSCLC = tested on: A549 NSCLC
ACHN renal = tested on: ACHN renal
BT-549 breast = tested on: BT-549 breast
CAKI-1 renal = tested on: CAKI-1 renal
CCRF-CEM leukemia = tested on: CCRF-CEM leukemia
COLO 205 colon = tested on: COLO 205 colon
DU-145 prostate = tested on: DU-145 prostate
EKVX NSCLC = tested on: EKVX NSCLC
HCC-2998 colon = tested on: HCC-2998 colon
HCT-116 colon = tested on: HCT-116 colon
HCT-15 colon = tested on: HCT-15 colon
HL-60(TB) leukemia = tested on: HL-60(TB) leukemia
HOP-62 NSCLC = tested on: HOP-62 NSCLC
HOP-92 NSCLC = tested on: HOP-92 NSCLC
HS 578T breast = tested on: HS 578T breast
HT29 colon = tested on: HT29 colon
IGROV1 ovarian = tested on: IGROV1 ovarian
K-562 leukemia = tested on: K-562 leukemia
KM12 colon = tested on: KM12 colon
LOX IMVI melanoma = tested on: LOX IMVI melanoma
M14 melanoma = tested on: M14 melanoma
MALME-3M melanoma = tested on: MALME-3M melanoma
MCF7 breast = tested on: MCF7 breast
MDA-MB-231 breast = tested on: MDA-MB-231 breast
MDA-MB-435 = tested on: MDA-MB-435
MOLT-4 leukemia = tested on: MOLT-4 leukemia
NCI-H23 lung = tested on: NCI-H23 lung
NCI-H460 lung = tested on: NCI-H460 lung
NCI-H522 lung = tested on: NCI-H522 lung
NCI/ADR-RES ovarian = tested on: NCI/ADR-RES ovarian
OVCAR-3 ovarian = tested on: OVCAR-3 ovarian
OVCAR-4 ovarian = tested on: OVCAR-4 ovarian
OVCAR-5 ovarian = tested on: OVCAR-5 ovarian
OVCAR-8 ovarian = tested on: OVCAR-8 ovarian
PC-3 prostate = tested on: PC-3 prostate
RPMI-8226 leukemia = tested on: RPMI-8226 leukemia
RXF 393 renal = tested on: RXF 393 renal
SF-268 CNS = tested on: SF-268 CNS
SF-295 CNS = tested on: SF-295 CNS
SF-539 CNS = tested on: SF-539 CNS
SK-MEL-2 melanoma = tested on: SK-MEL-2 melanoma
SK-MEL-28 melanoma = tested on: SK-MEL-28 melanoma
SK-MEL-5 melanoma = tested on: SK-MEL-5 melanoma
SK-OV-3 ovarian = tested on: SK-OV-3 ovarian
SN12C renal = tested on: SN12C renal
SNB-19 CNS = tested on: SNB-19 CNS
SNB-75 CNS = tested on: SNB-75 CNS
SR leukemia = tested on: SR leukemia
SW-620 colon = tested on: SW-620 colon
T-47D breast = tested on: T-47D breast
TK-10 renal = tested on: TK-10 renal
U251 CNS = tested on: U251 CNS
UACC-257 melanoma = tested on: UACC-257 melanoma
UACC-62 melanoma = tested on: UACC-62 melanoma
UO-31 renal = tested on: UO-31 renal

SMILES: CCC(C)C1NC(=O)C(CC(C)C)NC(=O)C(C)NC(=O)C(C(C)C)NC(=O)C(CCCCN)NC(=O)C(CC(C)C)NC(=O)C(C(C)C)NC(=O)[C@H](C)NC(=O)C(C(C)CC)NC(=O)C(CCCN=C(N)N)NC(=O)C(CCCCN)NC(=O)C(CCCN=C(N)N)NC(=O)C(CCCCN)NC(=O)C([C@H](C)CC)NC(=O)C(CCCCN)NC1=O (some centres undefined) (cyclo(A[ξV][ξL][ξK][ξV][ξA][ξL][ξI][ξK][X21][ξK][ξR][ξK][ξR][ξI]))
- GI50 (786-0 renal): 1.62 µM
- TGI (786-0 renal): 3.17 µM
- GI50 (A498 renal): 1.15 µM
- TGI (A498 renal): 2.82 µM
- GI50 (A549 NSCLC): 1.48 µM
- TGI (A549 NSCLC): 4.41 µM
- GI50 (ACHN renal): 1.79 µM
- TGI (ACHN renal): 4.5 µM
- GI50 (BT-549 breast): 1.56 µM
- TGI (BT-549 breast): 3.42 µM
- GI50 (CAKI-1 renal): 1.38 µM
- TGI (CAKI-1 renal): 3.04 µM
- GI50 (CCRF-CEM leukemia): 1.43 µM
- TGI (CCRF-CEM leukemia): 5.07 µM
- GI50 (COLO 205 colon): 1.49 µM
- TGI (COLO 205 colon): 3.85 µM
- GI50 (DU-145 prostate): 1.81 µM
- TGI (DU-145 prostate): 4.75 µM
- GI50 (EKVX NSCLC): 0.61 µM
- TGI (EKVX NSCLC): 2.9 µM
- GI50 (HCC-2998 colon): 1.83 µM
- TGI (HCC-2998 colon): 4.22 µM
- GI50 (HCT-116 colon): 1.35 µM
- TGI (HCT-116 colon): 2.84 µM
- GI50 (HCT-15 colon): 1.48 µM
- TGI (HCT-15 colon): 3.58 µM
- GI50 (HL-60(TB) leukemia): 1.77 µM
- TGI (HL-60(TB) leukemia): 4.44 µM
- GI50 (HOP-62 NSCLC): 1.7 µM
- TGI (HOP-62 NSCLC): 4.18 µM
- GI50 (HOP-92 NSCLC): 1.14 µM
- TGI (HOP-92 NSCLC): 2.91 µM
- GI50 (HS 578T breast): 1.72 µM
- TGI (HS 578T breast): 4.63 µM
- GI50 (HT29 colon): 2.59 µM
- TGI (HT29 colon): 10.3 µM
- GI50 (IGROV1 ovarian): 1.62 µM
- TGI (IGROV1 ovarian): 4.55 µM
- GI50 (K-562 leukemia): 0.783 µM
- TGI (K-562 leukemia): 3.79 µM
- GI50 (KM12 colon): 1.73 µM
- TGI (KM12 colon): 3.9 µM
- GI50 (LOX IMVI melanoma): 1.62 µM
- TGI (LOX IMVI melanoma): 3.03 µM
- GI50 (M14 melanoma): 1.5 µM
- TGI (M14 melanoma): 3.13 µM
- GI50 (MALME-3M melanoma): 1.12 µM
- TGI (MALME-3M melanoma): 2.58 µM
- GI50 (MCF7 breast): 1.54 µM
- TGI (MCF7 breast): 5.65 µM
- GI50 (MDA-MB-231 breast): 1.62 µM
- TGI (MDA-MB-231 breast): 3.73 µM
- GI50 (MDA-MB-435): 1.51 µM
- TGI (MDA-MB-435): 3.33 µM
- GI50 (MOLT-4 leukemia): 0.752 µM
- TGI (MOLT-4 leukemia): 2.82 µM
- GI50 (NCI-H23 lung): 0.43 µM
- TGI (NCI-H23 lung): 2.22 µM
- GI50 (NCI-H460 lung): 1.57 µM
- TGI (NCI-H460 lung): 3.49 µM
- GI50 (NCI-H522 lung): 1.45 µM
- TGI (NCI-H522 lung): 3.88 µM
- GI50 (NCI/ADR-RES ovarian): 1.06 µM
- TGI (NCI/ADR-RES ovarian): 3.84 µM
- GI50 (OVCAR-3 ovarian): 1.2 µM
- TGI (OVCAR-3 ovarian): 2.87 µM
- GI50 (OVCAR-4 ovarian): 0.72 µM
- TGI (OVCAR-4 ovarian): 10.2 µM
- GI50 (OVCAR-5 ovarian): 1.94 µM
- TGI (OVCAR-5 ovarian): 7.16 µM
- GI50 (OVCAR-8 ovarian): 1.48 µM
- TGI (OVCAR-8 ovarian): 4.87 µM
- GI50 (PC-3 prostate): 0.701 µM
- TGI (PC-3 prostate): 4.85 µM
- GI50 (RPMI-8226 leukemia): 0.305 µM
- TGI (RPMI-8226 leukemia): 1.13 µM
- GI50 (RXF 393 renal): 1.52 µM
- TGI (RXF 393 renal): 2.96 µM
- GI50 (SF-268 CNS): 1.76 µM
- TGI (SF-268 CNS): 5.12 µM
- GI50 (SF-295 CNS): 1.04 µM
- TGI (SF-295 CNS): 2.52 µM
- GI50 (SF-539 CNS): 1.84 µM
- TGI (SF-539 CNS): 3.61 µM
- GI50 (SK-MEL-2 melanoma): 1.72 µM
- TGI (SK-MEL-2 melanoma): 4.09 µM
- GI50 (SK-MEL-28 melanoma): 1.82 µM
- TGI (SK-MEL-28 melanoma): 4.34 µM
- GI50 (SK-MEL-5 melanoma): 0.6 µM
- TGI (SK-MEL-5 melanoma): 1.87 µM
- GI50 (SK-OV-3 ovarian): 1.99 µM
- TGI (SK-OV-3 ovarian): 5.94 µM
- GI50 (SN12C renal): 1.37 µM
- TGI (SN12C renal): 3.32 µM
- GI50 (SNB-19 CNS): 2.07 µM
- TGI (SNB-19 CNS): 10.1 µM
- GI50 (SNB-75 CNS): 1.34 µM
- TGI (SNB-75 CNS): 3.24 µM
- GI50 (SR leukemia): 1.48 µM
- TGI (SR leukemia): 4.1 µM
- GI50 (SW-620 colon): 1.56 µM
- TGI (SW-620 colon): 3.39 µM
- GI50 (T-47D breast): 0.756 µM
- TGI (T-47D breast): 4.28 µM
- GI50 (TK-10 renal): 1.62 µM
- TGI (TK-10 renal): 3.82 µM
- GI50 (U251 CNS): 1.5 µM
- TGI (U251 CNS): 3.44 µM
- GI50 (UACC-257 melanoma): 0.476 µM
- TGI (UACC-257 melanoma): 2.58 µM
- GI50 (UACC-62 melanoma): 1.26 µM
- TGI (UACC-62 melanoma): 2.85 µM
- GI50 (UO-31 renal): 1.37 µM
- TGI (UO-31 renal): 2.67 µM

— PubChem BioAssay (NCI)
